Reference: patent publication US20090270382A1, “Soluble epoxide hydrolase inhibitors” (Arete Therapeutics, Inc., priority 2008, published 2009)

Key:
[1] = system: soluble epoxide hydrolase (sEH); assay: Fluorescent assay for mouse and human soluble epoxide hydrolase (CMNPC substrate); type: biochemical
Text: Fluorescent Assay for Mouse and Human Soluble Epoxide Hydrolase Recombinant mouse sEH (MsEH) and human sEH (HsEH) were produced in a baculovirus expression system as previously reported. Grant et al., J. Biol. Chem., 268:17628-17633 (1993); Beetham et al., Arch. Biochem. Biophys., 305:197-201 (1993). The expressed proteins were purified from cell lysate by affinity chromatography. Wixtrom et al., Anal. Biochem., 169:71-80 (1988). Protein concentration was quantified using the Pierce BCA assay using bovine serum albumin as the calibrating standard. The preparations were at least 97% pure as judged by SDS-PAGE and scanning densitometry. They contained no detectable esterase or glutathione transferase activity which can interfere with the assay. The assay was also evaluated with similar results in crude cell lysates or homogenate of tissues. The IC50s for each inhibitor were according to the following procedure: […] Jones P. D. et. al.; Analytical Biochemistry 2005; 343: pp. 66-75) Bis/Tris HCl 25 mM pH 7.0 containing 0.1 mg/mL of BSA (buffer […] at 0.25 mM in DMSO. Mother solution of enzyme in buffer A (Mouse sEH at 6 μg/mL and Human sEH at 5 μg/mL). Inhibitor dissolved in DMSO at the appropriate concentration. In a black 96 well plate, fill all the wells with 150 μL of buffer A. Add 2 μL of DMSO in well A2 and A3, and then add 2 μL of inhibitor solution in A1 and A4 through A12. Add 150 μL of buffer A in row A, then mix several time and transfer 150 μL to row B. Repeat this operation up to row H. The 150 μL removed from row H is discarded. Add 20 μL of buffer A in column 1 and 2, then add 20 μL of enzyme solution to column 3 to 12. Incubate the plate for 5 minutes in the plate reader at 30° C. During incubation prepare the working solution of substrate by mixing 3.68 mL of buffer A (4×0.920 mL) with 266 μL (2×133 μL) of substrate solution). At t=0, add 30 μL of working substrate solution with multi-channel pipette labeled “Briggs 303” and start the reading ([S]final: 5 μM). […] The velocities are used to analyze and calculate the IC50s.

Q: For `O=C(Nc1ccc(OC(F)(F)F)cc1)NC1CCN(S(=O)(=O)c2cccnc2)CC1` [Compound 6, 1-(1-(pyridin-3-ylsulfonyl)piperidin-4-yl)-3-(4-(trifluoromethoxy)phenyl)urea], which melting point is on record?
A: 217 to 219 °C

Q: And the “% Inhibition” value ([1]; compound concentration 200 nM)?
A: 96%

Q: For `O=C(Nc1ccc(OC(F)(F)F)cc1)NC1CCN(C(=O)c2ccc(N3CCOCC3)nc2)CC1` [Compound 15, 1-(1-(6-morpholinonicotinoyl)pipendin-4-yl)-3-(4-(trifluoromethoxy)phenyl)urea], which melting point is on record?
A: 265 to 268 °C

Q: And the “% Inhibition” value ([1]; compound concentration 2000 nM)?
A: 100%

Q: Which melting point does the source give for `Cc1ccc(C(=O)N2CCC(NC(=O)Nc3ccc(OC(F)(F)F)cc3)CC2)cn1` [Compound 4, 1-(1-(6-methylnicotinoyl)piperidin-4-yl)-3-(4-(trifluoromethoxy)phenyl)urea] here?
A: 206 to 208 °C

Q: What about the “% Inhibition” value ([1]; compound concentration 200 nM) of the same compound?
A: 97%

Q: What does the source list for `O=C(Nc1ccc(OC(F)(F)F)cc1)NC1CCN(C(=O)c2ccc(Cl)cn2)CC1` [Compound 18, 1-(1-(5-chloropicolinoyl)piperidin-4-yl)-3-(4-(trifluoromethoxy)phenyl)urea]?
A: melting point: 213 to 215 °C; % Inhibition ([1]; compound concentration 2000 nM): 97%

Q: With `O=C(Nc1ccc(OC(F)(F)F)cc1)NC1CCN(C(=O)c2cccnc2)CC1` [Compound 12, 1-(1-nicotinoylpiperidin-4-yl)-3-(4-(trifluoromethoxy)phenyl)urea] as the compound, how does the “% Inhibition” value ([1]; compound concentration 2000 nM) read?
A: 100%

Q: What does the source list for `O=C(Nc1ccc(OC(F)(F)F)cc1)NC1CCN(C(=O)c2cncc(C(=O)O)c2)CC1` [Compound 1, 5-(4-(3-(4-(trifluoromethoxy)phenyl)ureido)piperidine-1-carbonyl)nicotinic acid]?
A: melting point: 211 to 213 °C; % Inhibition ([1]; compound concentration 200 nM): 94%

Q: For `CN1CCOc2cc(C(=O)N3CCC(NC(=O)Nc4ccc(OC(F)(F)F)cc4)CC3)cnc21` [Compound 17, 1-(1-(4-methyl-3,4-dihydro-2H-pyrido[3,2-b][1,4]oxazine-7-carbonyl)piperidin-4-yl)-3-(4-(trifluoromethoxy)phenyl)urea], which melting point is on record?
A: 212 to 214 °C

Q: And the “% Inhibition” value ([1]; compound concentration 2000 nM)?
A: 100%

Q: For `O=C(Nc1ccc(OC(F)(F)F)cc1)NC1CCN(C(=O)c2ccncc2)CC1` [Compound 8, 1-(1-isonicotinoylpiperidin-4-yl)-3-(4-(trifluoromethoxy)phenyl)urea], which “% Inhibition” value ([1]; compound concentration 2000 nM) is on record?
A: 99%

Q: For `O=C(Nc1ccc(OC(F)(F)F)cc1)NC1CCN(C(=O)c2cnccc2C(F)(F)F)CC1` [Compound 13, 1-(4-(trifluoromethoxy)phenyl)-3-(1-(4-(trifluoromethyl)nicotinoyl)piperidin-4-yl)urea], which melting point is on record?
A: 89 to 91 °C

Q: What about the “% Inhibition” value ([1]; compound concentration 2000 nM) of the same compound?
A: 99%

Q: What does the source list for `Cc1ncccc1C(=O)N1CCC(NC(=O)Nc2ccc(OC(F)(F)F)cc2)CC1` [Compound 3, 1-(1-(2-methylnicotinoyl)piperidin-4-yl)-3-(4-(trifluoromethoxy)phenyl)urea]?
A: melting point: 107 to 109 °C; % Inhibition ([1]; compound concentration 200 nM): 95%

Q: For `O=C(Nc1cccc(OC(F)(F)F)c1)NC1CCN(C(=O)c2cccnc2)CC1` [Compound 10, 1-(1-nicotinoylpiperidin-4-yl)-3-(3-(trifluoromethoxy)phenyl)urea], which “% Inhibition” value ([1]; compound concentration 2000 nM) is on record?
A: 99%

Q: Which melting point does the source give for `O=C(Nc1ccc(OC(F)(F)F)cc1)NC1CCN(C(=O)c2ccc(-c3ccccc3)nc2)CC1` [Compound 14, 1-(1-(6-phenylnicotinoyl)piperidin-4-yl)-3-(4-(trifluoromethoxy)phenyl)urea] here?
A: 230 to 232 °C

Q: What about the “% Inhibition” value ([1]; compound concentration 2000 nM) of the same compound?
A: 100%

Q: With `O=C(Nc1ccc(OC(F)(F)F)cc1)NC1CCN(C(=O)c2cncc(F)c2)CC1` [Compound 7, 1-(1-(5-fluoronicotinoyl)piperidin-4-yl)-3-(4-(trifluoromethoxy)phenyl)urea] as the compound, how does the melting point read?
A: 156 to 157 °C

Q: What about the “% Inhibition” value ([1]; compound concentration 2000 nM) of the same compound?
A: 98%

Q: For `O=C(Nc1ccc(OC(F)(F)F)cc1)NC1CCN(C(=O)c2ccc(C(F)(F)F)nc2)CC1` [Compound 2, 1-(4-(trifluoromethoxy)phenyl)-3-(1-(6-(trifluoromethyl)nicotinoyl)piperidin-4-yl)urea], which melting point is on record?
A: 206 to 208 °C

Q: What about the “% Inhibition” value ([1]; compound concentration 200 nM) of the same compound?
A: 97%

Q: With `COc1ncccc1C(=O)N1CCC(NC(=O)Nc2ccc(OC(F)(F)F)cc2)CC1` [Compound 5, 1-(1-(2-methoxynicotinoyl)piperidin-4-yl)-3-(4-(trifluoromethoxy)phenyl)urea] as the compound, how does the melting point read?
A: 92 to 94 °C

Q: And the “% Inhibition” value ([1]; compound concentration 200 nM)?
A: 99%

Q: With `COc1ccc(C(=O)N2CCC(NC(=O)Nc3ccc(OC(F)(F)F)cc3)CC2)cn1` [Compound 9, 1-(1-(6-methoxynicotinoyl)piperidin-4-yl)-3-(4-(trifluoromethoxy)phenyl)urea] as the compound, how does the melting point read?
A: 200 to 202 °C

Q: And the “% Inhibition” value ([1]; compound concentration 2000 nM)?
A: 99%

Q: For `O=C(Nc1ccc(OC(F)(F)F)cc1)NC1CCN(C(=O)c2ccc(Oc3ccccc3)nc2)CC1` [Compound 16, 1-(1-(6-phenoxynicotinoyl)piperidin-4-yl)-3-(4-(trifluoromethoxy)phenyl)urea], which melting point is on record?
A: 182 to 185 °C

Q: What about the “% Inhibition” value ([1]; compound concentration 2000 nM) of the same compound?
A: 100%

Q: With `O=C(Nc1ccc(OC(F)(F)F)cc1)NC1CCN(C(=O)Cc2ccccn2)CC1` [Compound 11, 1-(1-(2-(pyridin-2-yl)acetyl)piperidin-4-yl)-3-(4-(trifluoromethoxy)phenyl)urea] as the compound, how does the “% Inhibition” value ([1]; compound concentration 2000 nM) read?
A: 100%
